Results taken from paper PMC9317966, “Structure-function analysis of the AMPK activator SC4 and identification of a potent pan AMPK activator” (Biochemical Journal, 2022).

Key:
Assay type in all cases: biochemical
human GST-AMPK α1β1γ1 = target: T1, human GST-AMPK α1β1γ1 (Homo sapiens, UniProt Q13131+Q9Y478); assay: Radiolabel SAMS kinase assay, GST-AMPK from HEK293T/17 cells immobilised on glutathione-Sepharose; details: for Max. fold activation: immobilised α1β1γ1; for EC50: immobilised α1β1γ1, 0–30 µM activator
T1 construct: triply transfected with full-length AMPK α1 or α2 (NH2-terminal GST fusion, pDEST27 vector); full-length AMPK α1 or α2 (NH2-terminal GST fusion, pDEST27 vector), β1 or β2 (COOH-terminal FLAG fusion, pcDNA3.1 vector); FLAG (C); made in house; host or cells: HEK293T/17 cells, transient triple transfection
T1 sequence (Q13131 whole entry, the tested form may be a part): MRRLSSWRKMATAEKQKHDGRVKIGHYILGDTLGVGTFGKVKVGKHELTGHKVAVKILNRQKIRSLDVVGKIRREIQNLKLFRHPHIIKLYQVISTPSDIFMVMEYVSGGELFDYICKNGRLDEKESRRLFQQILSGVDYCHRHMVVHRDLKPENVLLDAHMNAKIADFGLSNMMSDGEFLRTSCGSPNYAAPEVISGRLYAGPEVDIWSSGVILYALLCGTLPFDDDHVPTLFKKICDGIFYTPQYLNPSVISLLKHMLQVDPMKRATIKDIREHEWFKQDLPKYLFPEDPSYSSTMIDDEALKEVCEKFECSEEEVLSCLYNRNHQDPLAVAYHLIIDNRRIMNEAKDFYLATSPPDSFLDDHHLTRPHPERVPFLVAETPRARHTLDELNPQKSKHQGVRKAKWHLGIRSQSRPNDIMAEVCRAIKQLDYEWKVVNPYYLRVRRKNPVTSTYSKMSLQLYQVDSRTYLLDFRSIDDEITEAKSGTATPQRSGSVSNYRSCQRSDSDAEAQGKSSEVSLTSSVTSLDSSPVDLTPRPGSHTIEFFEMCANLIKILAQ
T1 sequence (Q9Y478 whole entry, the tested form may be a part): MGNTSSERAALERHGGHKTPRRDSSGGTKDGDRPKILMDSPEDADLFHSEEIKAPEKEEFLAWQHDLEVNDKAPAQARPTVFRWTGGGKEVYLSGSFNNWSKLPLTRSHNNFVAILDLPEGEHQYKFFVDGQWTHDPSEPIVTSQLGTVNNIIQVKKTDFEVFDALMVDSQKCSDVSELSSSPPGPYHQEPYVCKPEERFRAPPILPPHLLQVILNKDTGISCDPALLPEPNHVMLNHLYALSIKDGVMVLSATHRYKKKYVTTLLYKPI
T1 sequence (P54619 whole entry partner, the tested form may be a part): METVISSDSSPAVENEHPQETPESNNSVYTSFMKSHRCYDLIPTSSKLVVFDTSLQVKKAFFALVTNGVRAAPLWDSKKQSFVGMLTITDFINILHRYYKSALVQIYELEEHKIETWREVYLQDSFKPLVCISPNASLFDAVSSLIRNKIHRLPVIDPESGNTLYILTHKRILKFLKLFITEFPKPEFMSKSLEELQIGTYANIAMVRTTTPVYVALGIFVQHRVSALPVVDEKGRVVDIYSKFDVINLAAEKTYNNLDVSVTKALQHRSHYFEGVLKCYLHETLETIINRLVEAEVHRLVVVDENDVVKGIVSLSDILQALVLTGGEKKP
Excerpt: We generated a series of compounds to investigate whether modification of the SC4 2-hydroxybiphenyl LHS fragment affects isoform selectivity, some of which (MSG008-MSG011) are presented in Table 1. We also synthesised compound MSG012 (example I-3-54 [32]), which was reported to activate α2β2γ1 with ∼100-fold greater potency compared with α1β1γ1. MSG012 differs from SC4 by substitution of the 2-hydroxyphenyl LHS fragment with 3-cyclohexen-4-yl-1-carboxylic acid, and 2-methylbenzoic acid RHS fragment with 1-hydroxy-N,N-dimethylcyclohexan-4-yl-1-carboxamide. Our initial screen involved measuring the activity of recombinant human GST-AMPK complexes expressed in HEK293T/17 cells and immobilised on glutathione-Sepharose (Supplementary Figure S1). Enzyme activity was measured by radiolabelling the synthetic SAMS peptide substrate in the absence or presence of 1 µM compound. Consistent with our previous characterisation, SC4 activated α1β1γ1, α2β1γ1 and α2β2γ1 >2.3-fold, and weakly activated α1β2γ1 1.3-fold (Figure 1A). […] The γ isoform had little influence on AMPK activation by MSG011 as most γ2 and γ3 complexes were activated >2.2-fold at 1 µM, with α1β2γ2 being the only exception (1.6-fold activation). […] Accordingly, MSG010, MSG011 and MSG012 can be classified as pan AMPK activators.
(§1) Adherent HEK293T/17 cells at ∼50% confluency were triply transfected with full-length AMPK α1 or α2 (NH2-terminal GST fusion, pDEST27 vector), β1 or β2 (COOH-terminal FLAG fusion, pcDNA3.1 vector), and γ1, γ2 or γ3 (NH2-terminal HA fusion, pMT2 vector) in the presence of FuGENE HD transfection reagent (Promega) as per the manufacturers protocol. Cells were harvested 48 hours post-transfection by first gently washing in ice cold phosphate buffered saline (PBS; Sigma–Aldrich), then scraping in ice cold lysis buffer (50 mM TRIS pH 7.5, 150 mM NaCl, 10% (v/v) glycerol, 50 mM NaF, 5 mM sodium pyrophosphate, 1% (v/v) Triton X-100, cOmplete protease inhibitor cocktail). Lysates were clarified by centrifugation (16 000g, 3 min, 4°C), flash frozen in liquid N2 and stored at −80°C until analysis. For radioactive kinase assays, AMPK was immobilised on glutathione Sepharose 4B resin (GE Healthcare) by incubation with lysates for 1.5 h at 4°C. Following centrifugation (1000g, 3 min, 4°C), the resin was washed twice in purification buffer (50 mM HEPES pH 7.4, 150 mM NaCl, 10% (v/v) glycerol, 0.02% (v/v) Tween-20), once in 50 mM HEPES pH 7.4 with 0.02% (v/v) Tween-20, then resuspended to a 50% slurry with 50 mM HEPES pH 7.4 and 10 µl added to the activity assays. For in solution kinase assays, α1β1γ1 AMPK was eluted from glutathione-Sepharose by incubating with purification buffer supplemented with 40 mM reduced glutathione (Sigma–Aldrich).
(§2) AMPK activity was determined by phosphorylation of the SAMS peptide (Purar Chemicals, sequence: NH2-HMRSAMSGLHLVKRR-COOH) in a 25 µl reaction volume containing 100 µM SAMS peptide, 5 mM MgCl2, 200 µM ATP, [γ-^32P]-ATP (PerkinElmer) and assay buffer (50 mM HEPES pH 7.4, 1 mM DTT and 0.02% (v/v) Tween-20) and purified AMPK. Phosphotransferase activity was conducted at 30°C for 10 min and reactions were quenched by spotting 15 µl onto phosphocellulose ion-exchange chromatography paper (made in-house), followed by repeated washes in 1% H3PO4 (Merck Millipore). Ultima Gold liquid scintillation fluid (5 ml; PerkinElmer) was added to vials containing dried phosphocellulose papers, and the level of ^32P-transfer to the SAMS peptide was determined using a Tri-Carb 2900TR liquid scintillation counter (PerkinElmer).

[1] = target: T2, GST-α1β1γ1 AMPK in solution (Homo sapiens, UniProt Q13131+Q9Y478); assay: In solution SAMS kinase assay, HEK293T/17-expressed GST-α1β1γ1 eluted from glutathione Sepharose; details: for EC50: 0-30 µM activator
T2 construct: triply transfected with full-length AMPK α1 or α2 (NH2-terminal GST fusion, pDEST27 vector); full-length AMPK α1 or α2 (NH2-terminal GST fusion, pDEST27 vector), β1 or β2 (COOH-terminal FLAG fusion, pcDNA3.1 vector); FLAG (C); made in house; host or cells: HEK293T/17 cells, transient triple transfection
T2 sequence (Q13131 whole entry, the tested form may be a part): as the sequence (Q13131 whole entry, the tested form may be a part) above
T2 sequence (Q9Y478 whole entry, the tested form may be a part): as the sequence (Q9Y478 whole entry, the tested form may be a part) above
T2 sequence (P54619 whole entry partner, the tested form may be a part): as the sequence (P54619 whole entry partner, the tested form may be a part) above
Experimental: as §1, §2
⍺1β1γ1 – in solution E. coli-expressed ⍺2β1γ1 […]
log [compound] (M) log [compound] (M)
Compound EC (nM) Max. fold Compound EC50 (nM) Max. fold
Supplementary Figure 3. In solution activation kinetics for AMPK complexes. Related to Figure 2. Activities measured in the presence of 0-30 µM AMPK activators. […]

human GST-AMPK α1β2γ1 = target: T3, human GST-AMPK α1β2γ1 (Homo sapiens, UniProt O43741+Q13131); assay: Radiolabel SAMS kinase assay, GST-AMPK from HEK293T/17 cells immobilised on glutathione-Sepharose; details: for Max. fold activation: immobilised α1β2γ1; for EC50: immobilised α1β2γ1, 0–30 µM activator
T3 construct: triply transfected with full-length AMPK α1 or α2 (NH2-terminal GST fusion, pDEST27 vector); full-length AMPK α1 or α2 (NH2-terminal GST fusion, pDEST27 vector), β1 or β2 (COOH-terminal FLAG fusion, pcDNA3.1 vector); FLAG (C); made in house; host or cells: HEK293T/17 cells, transient triple transfection
T3 sequence (Q13131 whole entry, the tested form may be a part): as the sequence (Q13131 whole entry, the tested form may be a part) above
T3 sequence (O43741 whole entry, the tested form may be a part): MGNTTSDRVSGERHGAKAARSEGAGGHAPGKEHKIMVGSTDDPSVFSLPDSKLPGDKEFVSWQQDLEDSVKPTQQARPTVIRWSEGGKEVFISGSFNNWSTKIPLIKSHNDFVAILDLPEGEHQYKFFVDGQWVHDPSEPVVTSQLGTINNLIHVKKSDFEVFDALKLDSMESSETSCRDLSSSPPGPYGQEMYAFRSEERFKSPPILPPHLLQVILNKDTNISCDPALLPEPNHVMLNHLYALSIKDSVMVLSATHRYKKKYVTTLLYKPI
T3 sequence (P54619 whole entry partner, the tested form may be a part): as the sequence (P54619 whole entry partner, the tested form may be a part) above

human GST-AMPK α2β1γ1 = target: T4, human GST-AMPK α2β1γ1 (Homo sapiens, UniProt P54646+Q9Y478); assay: as above; details: for Max. fold activation: immobilised α2β1γ1; for EC50: immobilised α2β1γ1, 0–30 µM activator
T4 construct: triply transfected with full-length AMPK α1 or α2 (NH2-terminal GST fusion, pDEST27 vector); full-length AMPK α1 or α2 (NH2-terminal GST fusion, pDEST27 vector), β1 or β2 (COOH-terminal FLAG fusion, pcDNA3.1 vector); FLAG (C); made in house; host or cells: HEK293T/17 cells, transient triple transfection
T4 sequence (P54646 whole entry, the tested form may be a part): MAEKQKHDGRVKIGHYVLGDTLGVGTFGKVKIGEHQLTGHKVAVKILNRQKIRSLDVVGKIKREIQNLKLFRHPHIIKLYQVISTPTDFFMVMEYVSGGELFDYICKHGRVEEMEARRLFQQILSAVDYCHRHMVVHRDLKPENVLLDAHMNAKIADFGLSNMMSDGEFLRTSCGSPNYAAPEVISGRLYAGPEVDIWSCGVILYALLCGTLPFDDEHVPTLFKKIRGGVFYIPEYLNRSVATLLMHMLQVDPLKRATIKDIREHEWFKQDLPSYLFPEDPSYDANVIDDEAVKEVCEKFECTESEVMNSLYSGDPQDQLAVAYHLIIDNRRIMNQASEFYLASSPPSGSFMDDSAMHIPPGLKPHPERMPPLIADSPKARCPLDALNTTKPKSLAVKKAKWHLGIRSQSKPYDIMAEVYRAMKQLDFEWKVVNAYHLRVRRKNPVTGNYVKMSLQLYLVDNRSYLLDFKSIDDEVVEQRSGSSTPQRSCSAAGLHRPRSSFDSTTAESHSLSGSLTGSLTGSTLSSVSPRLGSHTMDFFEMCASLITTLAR
T4 sequence (Q9Y478 whole entry, the tested form may be a part): as the sequence (Q9Y478 whole entry, the tested form may be a part) above
T4 sequence (P54619 whole entry partner, the tested form may be a part): as the sequence (P54619 whole entry partner, the tested form may be a part) above

human GST-AMPK α2β2γ1 = target: T5, human GST-AMPK α2β2γ1 (Homo sapiens, UniProt O43741+P54646); assay: as above; details: for Max. fold activation: immobilised α2β2γ1; for EC50: immobilised α2β2γ1, 0–30 µM activator
T5 construct: triply transfected with full-length AMPK α1 or α2 (NH2-terminal GST fusion, pDEST27 vector); full-length AMPK α1 or α2 (NH2-terminal GST fusion, pDEST27 vector), β1 or β2 (COOH-terminal FLAG fusion, pcDNA3.1 vector); FLAG (C); made in house; host or cells: HEK293T/17 cells, transient triple transfection
T5 sequence (P54646 whole entry, the tested form may be a part): as the sequence (P54646 whole entry, the tested form may be a part) above
T5 sequence (O43741 whole entry, the tested form may be a part): as the sequence (O43741 whole entry, the tested form may be a part) above
T5 sequence (P54619 whole entry partner, the tested form may be a part): as the sequence (P54619 whole entry partner, the tested form may be a part) above

Max. fold activation (human GST-AMPK α1β1γ1)	EC50 (human GST-AMPK α1β1γ1)	Max. fold activation [1]	EC50 [1]	Max. fold activation (human GST-AMPK α1β2γ1)	EC50 (human GST-AMPK α1β2γ1)	Max. fold activation (human GST-AMPK α2β1γ1)	EC50 (human GST-AMPK α2β1γ1)	Max. fold activation (human GST-AMPK α2β2γ1)	EC50 (human GST-AMPK α2β2γ1)	fold AMPK activation relative to vehicle (human GST-AMPK α1β1γ1; 1 µM compound)	Structure (SMILES)
2.2 fold	1210 nM	1.8 fold	1740 nM	4.4 fold	2180 nM	7.8 fold	3250 nM	5.8 fold	5600 nM	–	O[C@@H]1CO[C@H]2[C@@H]1OC[C@H]2Oc1nc2nc(-c3ccc(-c4ccccc4)cc3)c(Cl)cc2[nH]1 [MK-8722, reference compound]
3.1 fold	140 nM	2.6 fold	25.2 nM	2.3 fold	249 nM	7.5 fold	553 nM	4.0 fold	473 nM	> 2.2 fold	CC(=O)NC1CC=C(c2ccc(-c3nc4nc(Oc5ccc(C)c(C(=O)O)c5)[nH]c4cc3Cl)cc2)CC1 (stereo not drawn) [MSG011, 5-((5-(4′-Acetamido-2′,3′,4′,5′-tetrahydro-[1,1′-biphenyl]-4-yl)-6-chloro-1H-imidazo[4,5-b]pyridin-2-yl)oxy)-2-methylbenzoic acid]
